Earlier results on six molecules are cited in patent US11752097B2, “N-acetylcysteine compositions and methods” (Endo Ventures Limited, priority 2020, dated 2023).

For series [1] the following is noted: ingestion of 10-15 g in a single dose.
The conditions of series [2]: pH 7, RT; reaction with Hydroxyl radical (^•OH).
The conditions of series [3]: pH 7, RT; reaction with Superoxide anion (O2^•−).
For series [4] the following is noted: pH 7.4, 25° C.
For series [5] the following is noted: pH 7.4, 37° C.
The conditions of series [6]: pH 7.4, RT.
The conditions of series [7]: pH 7.4, 37° C.; reaction with Nitroxyl (HNO).
The conditions of series [8]: pH 7, 25° C.
The conditions of series [9]: Fe^3+.
The conditions of series [10]: Cu^2+.
For series [11] the following is noted: Ni^2+.
The conditions of series [12]: Zn^2+.
The conditions of series [13]: Co^2+.
The conditions of series [14]: Cr^3+.
For series [15] the following is noted: Cd^2+.
The conditions of series [16]: Hg^2+.
The conditions of series [17]: Mn^2+.
The conditions of series [18]: following intravenous administration.
Assay in series [19]: not given
This is another data set of the same source.

Assay in series [20]: not given
The source holds these as a separate data set.

For series [21] the following is noted: ambient light.
Assay in series [22]: not given
This is another data set of the same source.

Series [23] relates to acetaminophen-overdose-induced hepatotoxicity. As to conditions: in vivo.
Setting [24] is: 25° C. and 0.12 mol · dm^−3 ionic strength (NaClO4).
Setting [25] is: 25° C. and 0.1 mol · dm^−3 ionic strength (KNO3).
Setting [26] is: 37° C. and 0.15 mol · dm^−3 ionic strength (NaCl).

SMILES strings stand for the structures. Where two headings read alike, the source gives them in different places.

In the case of `CC(=O)Nc1ccc(O)cc1` [acetaminophen, Acetaminophen], in [1], the “time to hepatic damage after overdose” value was 2 to 5 days.

With `CC(=O)N[C@@H](CS)C(=O)O` [Acetylcysteine, N-acetyl-L-cysteine], the Rate constant in series [2] was 1.36e+10 M⁻¹ s⁻¹; in [3], 68 ± 6 M⁻¹ s⁻¹; in series [4], 0.85 ± 0.09 M⁻¹ s⁻¹; in [5], 415 ± 10 M⁻¹ s⁻¹; in [5] (reaction with Peroxynitrite), 415 ± 10 M⁻¹ s⁻¹; in series [6] it was around 1e+07 M⁻¹ s⁻¹. For the same molecule, the Rate constant in series [7] was 500000 M⁻¹ s⁻¹; in [8] it was “(1.36 ± 0.2) × 10^4 M^−1 s^−1”. Further, the “Complex formation constant (log K)” value in series [9] (setting [24]) was 10.58; in series [10] (setting [25]), 9.02; in series [10] (setting [26]), 6.64; in series [11] (setting [24]) it was 5.02; in [11] (setting [26]), 4.86; in series [12] (setting [25]) it was 7.04. In addition, the “Complex formation constant (log K)” value is on record as 6.23 in series [12] (setting [26]); 4.18 in series [13] (setting [24]); 4.28 in series [13] (setting [26]); 8.26 in series [14] (setting [24]); 7.25 in [15] (setting [25]); 11.23 in [16] (setting [25]). For the same molecule, the “Complex formation constant (log K)” value in series [17] (setting [26]) is 3.64. For the same molecule, the “half-life (t1/2)” value (following an intravenous administration) is 5.7 h. For the same molecule, the “administered acetylcysteine excreted in the urine unchanged” value (in vivo) is listed as 20-30%. Also, in [18], the Potential adverse reactions result is “acute flushing and erythema of the skin, and anaphylactoid reactions”. Moreover, the “Solubility: volume of alcohol for 1 gram” value in [19] (1 gram in alcohol) is reported as 4 mL. Besides, the “Solubility: volume of water for 1 gram” value in series [19] (1 gram in water) was 5 mL. For the same molecule, the Solubility in chloroform entry in series [19] (chloroform) was “insoluble”. Moreover, the Solubility in ether entry in series [19] (ether) is “insoluble”. Further, the redox potential entry in series [20] (relative to Glutathione (reduced GSH/oxidized GSSG) system as a reference standard) is listed as “+63 mV”. Besides, the Light stability result in [21] is reported as “stable in ambient light”. The “Reaction of solutions with contact materials” value in series [22] (contact with rubber, some metals (particularly iron and copper surfaces), and/or autoclaving) was “discoloration and hydrogen sulfide generation”. For the same molecule, the “Reaction with contact materials” value in series [22] (glass, plastic, aluminum, anodized aluminum, chromed metal and stainless steel) was “does not react”. Further, the “Activity of isomer (prevention of hepatotoxicity)” value in series [23] was “active”.

For `N[C@@H](CCC(=O)N[C@@H](CS)C(=O)NCC(=O)O)C(=O)O` [Glutathione], the experimental redox potential in [20] (in the cytosol) is −289 mV.

With `O=C(O)CN(CCN(CC(=O)O)CC(=O)O)CC(=O)O` [EDTA, Ethylenediaminetetraacetic acid], the “Complex formation constant (log K)” value is 25.10 in series [9] (conditions not given); 18.80 in series [10] (conditions not given); 18.62 in series [11] (conditions not given); 16.50 in [12] (conditions not given); 16.31 in series [13] (conditions not given); 23.40 in series [14] (conditions not given). In addition, the results for the “Complex formation constant (log K)” value in series [15] (conditions not given), in [16] (conditions not given) and in series [17] (conditions not given) were 16.46, 21.80 and 14.04, respectively.

For `O=C(O)CN(CCN(CC(=O)O)CC(=O)O)CCN(CC(=O)O)CC(=O)O` [DTPA, diethylenetriaminepentaacetic acid], the “Complex formation constant (log K)” value was 28.60 in [9] (conditions not given); 21.53 in series [10] (conditions not given); 20.32 in series [11] (conditions not given); 18.75 in series [12] (conditions not given); 18.40 in [13] (conditions not given); 19.31 in [15] (conditions not given). Also, the “Complex formation constant (log K)” value is listed as 27.00 in [16] (conditions not given) and 15.60 in [17] (conditions not given).

As to `CC(=O)N[C@H](CS)C(=O)O` (single isomer, unassigned) [D-isomer of acetylcysteine], the “Activity of isomer (prevention of hepatotoxicity)” value was “not prevent hepatotoxicity” in series [23] and “inactive” in series [23] (listed as D-isomer).
